Experimental data taken from patent US11730788B2, “Use of peptides as therapeutic agent for autoimmune diseases and bone diseases” (KINE SCIENCES CO., LTD., priority 2017, dated 2023).

What was measured:
IL-6 = experiment: Inflammatory cytokine IL-6 reduction effect (IL-6 ELISA, THP-1 derived M1 macrophages); assay type: cell-based; settings: LPS 10 ng/ml + IFN-gamma 20 ng/ml, peptide 100 ng/ml, 24 hours, similar to positive control MTX
Method: In order to confirm the efficacy of the synthetic peptides prepared in Example 1 to inhibit inflammatory cytokine IL-6 secretion, a THP-1 monocytic cell line was treated with PMA 50 ng/ml for 48 hours to be differentiated into M1 macrophages. After treatment with LPS 10 ng/ml and IFN-gamma 20 ng/ml to the differentiated M1 macrophages, a positive control group MTX or the synthetic peptides of the present invention were co-treated at a concentration of 100 ng/ml, respectively. Thereafter, after incubation for 24 hours, IL-6 ELISA was performed using a cultured sup.

[1] = test system: collagen-induced arthritis (CIA) mouse model; experiment: Rheumatoid arthritis treatment effect in collagen-induced arthritis (CIA) mouse model; assay type: in vivo, DBA/1J mouse; settings: intraperitoneal, 3 times a week after second immunization; versus vehicle PBS; similar efficacy to positive control MTX
Method: In order to confirm a rheumatoid arthritis improvement effect of the peptides prepared in Example 1, a rheumatoid arthritis mouse model was prepared with reference to a known literature (Nat Protoc. 2007; 2 (5): 1269-75.).
Specifically, a CIA mouse model is a mouse model most commonly used in a rheumatoid arthritis animal test as an autoimmune disease arthritis model having characteristics similar to human rheumatoid arthritis. In the CIA mouse model, bovine type II collagen (Chondrex, USA) was mixed and emulsified with a Freund's complete adjuvant (Chondrex, USA) at 1:1, and then first immunization was performed by injecting 50 μl of the emulsified collagen solution intradermally into a 6-week-old DBA/1J mouse tail. On 2 weeks after the first immunization, bovine type II collagen was mixed and emulsified with a Freund's incomplete adjuvant (Chondrex, USA) at 1:1, and then second immunization (boosting) was performed by injecting 50 μl of the emulsified collagen solution induced) intradermally into the mouse tail. After the second immunization, each peptide was intraperitoneally administered 3 times a week from the following day to observe a therapeutic effect of the peptides for rheumatoid arthritis.
In order to examine the progression of rheumatoid arthritis according to the peptide treatment of the present invention, the severity of rheumatoid arthritis over time was evaluated and measured by a rheumatoid arthritis progress index.
At this time, the arthritis progress index was evaluated as Points 0 to 4 per leg in accordance with the arthritis progress evaluation criteria by Rossoliniec, etc. in Table 2 below and shown to total Points 0 to 16 (sum of four legs). Thereafter, an average value of the results evaluated by the two observers was calculated to quantify the severity of arthritis.

[2] = test system: Th17 cell differentiation of naive CD4+ T cells; experiment: Th17 cell differentiation inhibitory effect (CD4+IL-17+ T cell population); assay type: cell-based, mouse; settings: IL-6 20 ng/ml + TGF-beta 5 ng/ml + TCR activation; peptide 10 ng/ml to 1000 ng/ml, 3 days; non-induced 1.2%, induced 3.14%
Method: In order to confirm the efficacy of the synthetic peptides prepared in Example 1 to inhibit Th17 cell differentiation, naive CD4^+ T cells extracted from lymph nodes of the mouse were treated with IL-6 20 ng/ml and TGF-beta 5 ng/ml together with TCR activation to induce differentiation into Th17 cells.
At the same time, three peptides Pep1, Pep6, and Pep8 disclosed in Table 2 of Test Example 1 were treated at a concentration of 10 ng/ml to 1000 ng/ml, respectively. Then, after incubation for 3 days, CD4+IL-17+ T cell population was analyzed.

Substance	IL-6 secretion (ELISA of culture sup) (IL-6)	arthritis improvement (arthritis score, total Points 0 to 16) [1]	ratio of Th17 cells (CD4+IL-17+ T cell population) [2]
KEAKEAKEA [Pep7]	significantly reduced	efficacy of arthritis improvement was shown	–
KDGKDGKDG [Pep5]	significantly reduced	–	–
KDGKDG [Pep1]	–	efficacy of arthritis improvement was shown	reduced similarly to the group that did not induce differentiation
KEGKEG [Pep2]	significantly reduced	–	–
KDAKDAKDA [Pep8]	significantly reduced	efficacy of arthritis improvement was shown	reduced similarly to the group that did not induce differentiation
KEGKEGKEG [Pep6]	–	efficacy of arthritis improvement was shown	reduced similarly to the group that did not induce differentiation
KEAKEA [Pep3]	significantly reduced	–	–
KDAKDA [Pep4]	–	efficacy of arthritis improvement was shown	–
